The record followed here is patent US20130252930A1 (BIOMARIN PHARMACEUTICAL INC., priority 2010, published 2013).

Data set [1] concerns the target T1, CYP17 (human testicular microsome) (Homo sapiens, UniProt P05093).
T1 construct: using microsomal fraction from human testis (Celsis Cat #S00110) as the enzyme source; tissue Celsis S00110; host or cells: human testis microsomal fraction
T1 sequence (P05093 1-508): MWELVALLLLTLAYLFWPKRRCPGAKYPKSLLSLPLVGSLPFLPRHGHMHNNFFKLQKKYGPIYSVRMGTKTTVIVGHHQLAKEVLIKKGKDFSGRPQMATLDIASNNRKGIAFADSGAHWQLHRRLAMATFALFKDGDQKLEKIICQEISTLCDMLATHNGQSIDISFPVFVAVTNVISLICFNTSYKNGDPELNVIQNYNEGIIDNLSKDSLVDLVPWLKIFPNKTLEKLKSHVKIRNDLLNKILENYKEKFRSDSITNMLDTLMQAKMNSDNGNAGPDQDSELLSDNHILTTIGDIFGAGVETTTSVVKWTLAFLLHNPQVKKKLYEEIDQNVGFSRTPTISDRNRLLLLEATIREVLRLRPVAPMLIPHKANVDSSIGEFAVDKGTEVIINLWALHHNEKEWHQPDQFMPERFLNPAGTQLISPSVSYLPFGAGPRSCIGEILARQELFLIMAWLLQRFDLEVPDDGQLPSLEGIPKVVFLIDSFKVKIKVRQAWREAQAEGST
Briefly: CYP17 enzymatic assay (% inhibition at 10 nM), version 1 (Biological Example 5). In kind it is biochemical. The conditions noted are these: 10 nM compound, DHEA by ELISA, read-out: Biological Example No. 5: CYP17 percent inhibition at 10 nM (version 1). (In general: In an ELISA, binding on a coated surface is turned into a signal by an enzyme label.)

Another data set is described as follows: in vitro. The conditions noted are these: rat, microsomes, pH 7.4.
Data set [2] is described as follows: Human liver microsome stability assay (Biological Example 8b). The conditions noted are these: liver microsomes, pH 7.4. For orientation: Liver microsomes are a subcellular fraction often used to study metabolism.
Protocol: The reaction was started with addition of excess NADPH (5 mg/mL, 15 μL in 0.1 M potassium phosphate buffer, 1.0 mM EDTA, pH 7.4), the total volume is 45 μL (compound final concentration was 1 μM). […] 50 μL of the supernatant was transferred from each well into a 96-well sample plate containing 50 μL of ultra-pure water (Millipore) for LC-MS/MS analysis.
In data set [3] the target is T2, Human C17,20-lyase (microsomal fraction from human testis) (Homo sapiens, UniProt P05093).
T2 construct: using microsomal fraction from human testis (Celsis Cat #S00110) as the enzyme source; tissue Celsis S00110; host or cells: human testis microsomal fraction
T2 sequence (P05093 1-508): T1 sequence (P05093 1-508)
Put plainly: CYP17 enzymatic assay (% inhibition at 10 nM), version 2 (Biological Example 6). In kind it is biochemical. To be noted: method: tested at 100 nM; human testis microsome, radiometric. The protocol:
Human C17,20-lyase enzymatic assays were conducted in 200 μL volume in Eppendorf tubes, using microsomal fraction from human testis (Celsis Cat #S00110) as the enzyme source. Total protein concentration of the microsomal fraction is estimated to be 20 mg/ml. Prior to adding the microsomal fractions, reaction mixtures containing 50 mM NaPO4 buffer (pH 7.4), 1 mM MgCl2, 0.1 mM EDTA, 0.1 mM dithiothreitol, 0.5 mM NADPH, 4 μM 17α-hydroxypregnenolone, 1 μL of [21-^3H]-17α-hydroxypregnenolone (American Radiolabeled Chemicals, ART #1663, Specific activity=50-60 Ci/mmol), and the appropriate testing compounds were incubated for 5 minutes in a 37° C. shaking water bath (150 rpm). Following the 5-minute pre-incubation, 5 μL of human testis microsome was added to each of the reaction mixtures (except for the Negative Controls, which received 5 μL of H2O). After 30-minute incubation at 37° C. in shaking water bath (150 rpm), reactions were stopped by addition of 200 μL of cold chloroform and vigorous shaking for 30 minutes. Tubes were centrifuged at 1,500×g for 15 minutes at 4° C., and the aqueous phase was transferred to fresh Eppendorf tubes. Forty microliters (40 μL) of 8.5% charcoal (Sigma Cat #C6241) suspension was added to each tube, mixed well and incubated at 4° C. for 30 minutes. Tubes were centrifuged at 1,500×g for 15 minutes at 4° C., and 100 μL upper layer from each tube was transferred into each well of a 96-well isoplate (PerkinElmer Cat #6005040). Finally, 100 μL of Optiphase supermix scintillation fluid (PerkinElmer Cat #1200430) was added to each well, mixed by pippeting up and down 3 times. Radioactivity was measured with MicroBeta Trilux Counter using tritium program.
All testing compounds were dissolved and diluted in methanol. Two microliters (2 μL) of the properly diluted test compound was added to each reaction to reach the desired concentration. In Negative control (no enzyme activity) and Activity control (100% enzyme activity), 2 μL of methanol was added. Each data point was tested in duplicate. […]
For compounds of further interest, IC50 value was generated by measuring the inhibition rate at 5 concentrations and using Prism software under “non-linear regression analysis.”

Data set [4] in a line: Rat liver microsome stability assay (Biological Example 8a). To be noted: liver microsomes, pH 7.4.
The target in data set [5] is T1, CYP17 (human testicular microsome). Put plainly: CYP17 enzymatic assay (IC50) (Biological Example 4). In kind it is biochemical. To be noted: human testicular microsome, DHEA by ELISA; read-out: Biological Example No. 4: CYP17 enzymatic assay IC50.

For `C[C@]12CCCCC1=CC[C@@H]1[C@@H]2CC[C@]2(C)C(c3cccnc3)=CC[C@@H]12` [Compound 67, 3-((10R,13S)-10,13-dimethyl-2,3,4,7,8,9,10,11,12,13,14,15-dodecahydro-1H-cyclopenta[a]phenanthren-17-yl)pyridine], the inhibition (as a rule, the relative decrease from the control value, in per cent) at 0.01 µM in data set [1] was in the range of 50 to 80%. Besides, the half-life (as a rule, the time in which the quantity being followed falls by half) at 1 μM in the data set “in vitro” was 1 to 10 min.

For `C[C@]12CCOC(=O)C[C@@H]1CC[C@@H]1[C@@H]2CC[C@]2(C)C(c3cccnc3)=CC[C@@H]12` [Compound 112, (1S,2S,8S,12S,16S,11R)-2,16-dimethyl-15-(3-pyridyl)-5-oxatetracyclo[9.7.0.0^2,8.0^12,16]octadec-14-en-6-one], the values for the half-life at 1 μM in data set [2] and in data set [4] were 1 to 50 min and 10 to 60 min, respectively. The “Biological Example No. 6: CYP17 percent inhibition (version 2)” value in data set [3] is recorded as “F (F means the compound had a percent inhibition of greater than or equal to 38%)”. Also, the half-maximal inhibitory concentration (IC50) (in general, the point on the concentration scale where inhibition reaches its midpoint) in data set [5] is under 11 nM.
